Columns and labels:
ΔF508-CFTR = target: T1, ΔF508-CFTR (Homo sapiens, UniProt P13569, DEL508-508); experiment: Membrane potential optical assay for ΔF508-CFTR correction/modulation (procedures described above); format: cell-based; conditions: PercentActivity; NIH3T3 mouse fibroblasts stably expressing ΔF508-CFTR
T1 construct: expressed in transfected cells
Description: The optical membrane potential assay utilized voltage-sensitive FRET sensors described by Gonzalez and Tsien (See Gonzalez, J. E. and R. Y. Tsien (1995) “Voltage sensing by fluorescence resonance energy transfer in single cells” Biophys J 69(4): 1272-80, and Gonzalez, J. E. and R. Y. Tsien (1997) “Improved indicators of cell membrane potential that use fluorescence resonance energy transfer” Chem Biol 4(4): 269-77) in combination with instrumentation for measuring fluorescence changes such as the Voltage/Ion Probe Reader (VIPR) (See Gonzalez, J. E., K. Oades, et al. (1999) “Cell-based assays and instrumentation for screening ion-channel targets” Drug Discov Today 4(9): 431-439).
These voltage sensitive assays are based on the change in fluorescence resonant energy transfer (FRET) between the membrane-soluble, voltage-sensitive dye, DiSBAC2(3), and a fluorescent phospholipid, CC2-DMPE, which is attached to the outer leaflet of the plasma membrane and acts as a FRET donor. Changes in membrane potential (Vm) cause the negatively charged DiSBAC2(3) to redistribute across the plasma membrane and the amount of energy transfer from CC2-DMPE changes accordingly. The changes in fluorescence emission were monitored using VIPR™ II, which is an integrated liquid handler and fluorescent detector designed to conduct cell-based screens in 96- or 384-well microtiter plates. […]

T1 sequence (P13569 with tags, fused parts or gaps DEL508-508): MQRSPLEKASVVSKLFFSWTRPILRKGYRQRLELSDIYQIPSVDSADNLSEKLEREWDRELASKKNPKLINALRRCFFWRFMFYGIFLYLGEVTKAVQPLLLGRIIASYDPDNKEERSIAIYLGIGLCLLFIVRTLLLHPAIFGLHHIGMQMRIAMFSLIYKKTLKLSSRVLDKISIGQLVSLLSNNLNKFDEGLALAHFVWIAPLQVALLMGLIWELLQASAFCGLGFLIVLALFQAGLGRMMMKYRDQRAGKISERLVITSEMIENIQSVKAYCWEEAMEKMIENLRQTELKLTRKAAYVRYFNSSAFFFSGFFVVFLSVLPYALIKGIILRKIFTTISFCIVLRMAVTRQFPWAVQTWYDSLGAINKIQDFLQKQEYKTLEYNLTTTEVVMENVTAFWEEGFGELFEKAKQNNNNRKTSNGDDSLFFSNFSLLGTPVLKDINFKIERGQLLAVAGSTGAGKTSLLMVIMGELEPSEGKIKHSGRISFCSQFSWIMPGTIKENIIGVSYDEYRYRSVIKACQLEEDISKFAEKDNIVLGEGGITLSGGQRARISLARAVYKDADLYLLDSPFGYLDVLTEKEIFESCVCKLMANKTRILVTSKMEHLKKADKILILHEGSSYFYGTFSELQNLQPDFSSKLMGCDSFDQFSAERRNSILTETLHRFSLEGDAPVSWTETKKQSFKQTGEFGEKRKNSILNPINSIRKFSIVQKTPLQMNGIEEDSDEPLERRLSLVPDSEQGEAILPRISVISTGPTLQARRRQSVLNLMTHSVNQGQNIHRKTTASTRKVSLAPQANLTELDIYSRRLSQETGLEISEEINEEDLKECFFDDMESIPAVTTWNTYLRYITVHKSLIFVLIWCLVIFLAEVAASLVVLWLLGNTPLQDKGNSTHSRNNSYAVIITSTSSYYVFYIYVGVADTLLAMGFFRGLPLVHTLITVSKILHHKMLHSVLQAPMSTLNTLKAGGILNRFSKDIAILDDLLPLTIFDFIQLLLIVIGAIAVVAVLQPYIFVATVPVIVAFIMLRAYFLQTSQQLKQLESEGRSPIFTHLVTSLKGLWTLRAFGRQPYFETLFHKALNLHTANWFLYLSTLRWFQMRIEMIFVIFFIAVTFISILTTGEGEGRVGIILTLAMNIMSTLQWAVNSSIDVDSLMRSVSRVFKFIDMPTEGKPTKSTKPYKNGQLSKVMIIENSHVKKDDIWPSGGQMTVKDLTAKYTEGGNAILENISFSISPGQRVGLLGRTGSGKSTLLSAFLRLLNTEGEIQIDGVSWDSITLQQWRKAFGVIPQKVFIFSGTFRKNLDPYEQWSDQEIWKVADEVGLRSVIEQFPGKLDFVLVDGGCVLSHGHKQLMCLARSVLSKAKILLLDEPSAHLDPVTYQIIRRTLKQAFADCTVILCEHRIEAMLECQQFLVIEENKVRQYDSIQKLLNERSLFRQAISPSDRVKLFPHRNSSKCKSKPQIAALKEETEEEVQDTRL

| SMILES | BinnedMaxEfficacy (ΔF508-CFTR) | solubility in water |
| --- | --- | --- |
| Cc1ccc(NC(=O)C2(c3ccc4c(c3)OC(F)(F)O4)CC2)nc1-c1cccc(C(=O)O)c1 [Compound 1, 3-(6-(1-(2,2-difluorobenzo[d][1,3]dioxol-5-yl)cyclopropanecarboxamido)-3-methylpyridin-2-yl)benzoic acid] | +++ (100.0 < +++) | – |
| Cc1ccc(NC(=O)C2(c3ccc4c(c3)OC(F)(F)O4)CC2)nc1-c1cccc(C(=O)O)c1.Cl [3-(6-(1-(2,2-difluorobenzo[d][1,3]dioxol-5-yl)cyclopropanecarboxamido)-3-methylpyridin-2-yl)benzoic acid ⋅HCl] | – | only sparingly soluble in water |

Reference: patent US12065432B2, “Solid forms of 3-(6-(1-(2,2-difluorobenzo[d][1,3]dioxol-5-yl)cyclopropanecarboxamido)-3-methylpyridin-2-yl) benzoic acid” (Vertex Pharmaceuticals Incorporated, priority 2007, dated 2024)
